Patent US20240158348A1, “HERBICIDAL CYCLIC AMIDES N-SUBSTITUTED WITH A HALOALKYLSULFONYLANILIDE GROUP” (FMC Corporation, priority 2021, published 2024)

Tests used:
Assay type in all cases: in vivo
[1] = system: corn (Zea mays); assay: Test C preemergence, corn; details: 0 is no effect, 100 is complete control
Text: (§1) Seeds of plant species selected from blackgrass (Alopecurus myosuroides), corn (Zea mays), foxtail, giant (giant foxtail, Setaria faberi), goosegrass (Eleusine indica), kochia (Bassia scoparia), oat, wild (wild oat, Avena fatua), pigweed, palmer (palmer amaranth, Amaranthus palmeri), ragweed (common ragweed, Ambrosia artemisiifolia), ryegrass, Italian (Italian ryegrass, Lolium multiflorum), soybean (Glycine max) and wheat (Triticum aestivum) were planted into a blend of loam soil and sand and treated preemergence with a directed soil spray using test chemicals formulated in a non-phytotoxic solvent mixture which included a surfactant.
(§2) At the same time, plants selected from these crop and weed species and also galium (catchweed bedstraw, Galium aparine) and horseweed (Erigeron canadensis) were planted in pots containing the same blend of loam soil and sand and treated with postemergence applications of test chemicals formulated in the same manner. Plants ranged in height from 2 to 10 cm and were in the one- to two-leaf stage for the postemergence treatment. Treated plants and untreated controls were maintained in a greenhouse for 10 or 12 days, after which time all treated plants were compared to untreated controls and visually evaluated for injury. Plant response ratings, summarized in Table A, are based on a 0 to 100 scale where 0 is no effect and 100 is complete control. A dash (-) response means no test result.

[2] = system: ryegrass, Italian (Italian ryegrass, Lolium multiflorum); assay: Test C postemergence, Italian ryegrass; details: visual injury, 0 to 100 scale (0 no effect, 100 complete control)
Text: as §1, §2

[3] = system: goosegrass (Eleusine indica); assay: Test C postemergence, goosegrass; details: visual injury, 0 to 100 scale (0 no effect, 100 complete control)
Text: as §1, §2

[4] = system: oat, wild (wild oat, Avena fatua); assay: Test C postemergence, wild oat; details: visual injury, 0 to 100 scale (0 no effect, 100 complete control)
Text: as §1, §2

[5] = system: soybean (Glycine max); assay: Test C postemergence, soybean; details: visual injury, 0 to 100 scale (0 no effect, 100 complete control)
Text: as §1, §2

[6] = system: rice (Oryza sativa); assay: Test D flooded paddy test, rice; parameters: key: 0 = no effect, 100 = complete control; details: 250 g ai/ha, Flood; applied to paddy water at 2-leaf stage; visual rating after 13 days; scale 0 (no effect) to 100 (complete control)
Protocol: (§3) Plant species in the flooded paddy test selected from barnyardgrass (Echinochloa crusgalli), ducksalad (Heteranthera limosa), rice (Oryza sativa), and sedge, umbrella (small-flower umbrella sedge, Cyperus difformis) were grown to the 2-leaf stage for testing. At time of treatment, test pots were flooded to 3 cm above the soil surface, treated by application of test compounds directly to the paddy water, and then maintained at that water depth for the duration of the test. Treated plants and controls were maintained in a greenhouse for 13 days, after which time all species were compared to controls and visually evaluated. Plant response ratings, summarized in Table B, are based on a scale of 0 to 100 where 0 is no effect and 100 is complete control. A dash (-) response means no test result.

[7] = system: foxtail, giant (giant foxtail, Setaria faberi); assay: Test C postemergence, giant foxtail; details: visual injury, 0 to 100 scale (0 no effect, 100 complete control)
Text: as §1, §2

[8] = system: pigweed, palmer (palmer amaranth, Amaranthus palmeri); assay: Test C postemergence, palmer amaranth; details: visual injury, 0 to 100 scale (0 no effect, 100 complete control)
Text: as §1, §2

[9] = system: sedge, umbrella (small-flower umbrella sedge, Cyperus difformis); assay: Test D flooded paddy test, umbrella sedge; parameters: key: 0 = no effect, 100 = complete control; details: 250 g ai/ha, Flood; applied to paddy water at 2-leaf stage; visual rating after 13 days; scale 0 (no effect) to 100 (complete control)
Protocol: as §3

[10] = system: galium (catchweed bedstraw, Galium aparine); assay: Test C postemergence, galium; details: visual injury, 0 to 100 scale (0 no effect, 100 complete control)
Text: as §1, §2

[11] = system: ragweed (common ragweed, Ambrosia artemisiifolia); assay: Test C postemergence, ragweed; details: visual injury, 0 to 100 scale (0 no effect, 100 complete control)
Text: as §1, §2

[12] = system: pigweed, palmer (palmer amaranth, Amaranthus palmeri); assay: Test C preemergence, palmer amaranth; details: 0 is no effect, 100 is complete control
Text: as §1, §2

[13] = system: ryegrass, Italian (Italian ryegrass, Lolium multiflorum); assay: Test C preemergence, Italian ryegrass; details: 0 is no effect, 100 is complete control
Text: as §1, §2

[14] = system: barnyardgrass (Echinochloa crusgalli); assay: Test D flooded paddy test, barnyardgrass; parameters: key: 0 = no effect, 100 = complete control; details: 250 g ai/ha, Flood; applied to paddy water at 2-leaf stage; visual rating after 13 days; scale 0 (no effect) to 100 (complete control)
Protocol: as §3

[15] = system: ducksalad (Heteranthera limosa); assay: Test D flooded paddy test, ducksalad; parameters: key: 0 = no effect, 100 = complete control; details: 250 g ai/ha, Flood; applied to paddy water at 2-leaf stage; visual rating after 13 days; scale 0 (no effect) to 100 (complete control)
Protocol: as §3

[16] = system: kochia (Bassia scoparia); assay: Test C postemergence, kochia; details: visual injury, 0 to 100 scale (0 no effect, 100 complete control)
Text: as §1, §2

[17] = system: oat, wild (wild oat, Avena fatua); assay: Test C preemergence, wild oat; details: 0 is no effect, 100 is complete control
Text: as §1, §2

[18] = system: ragweed (common ragweed, Ambrosia artemisiifolia); assay: Test C preemergence, ragweed; details: 0 is no effect, 100 is complete control
Text: as §1, §2

[19] = system: foxtail, giant (giant foxtail, Setaria faberi); assay: Test C preemergence, giant foxtail; details: 0 is no effect, 100 is complete control
Text: as §1, §2

[20] = system: blackgrass (Alopecurus myosuroides); assay: Test C postemergence, blackgrass; details: visual injury, 0 to 100 scale (0 no effect, 100 complete control)
Text: as §1, §2

[21] = system: horseweed (Erigeron canadensis); assay: Test C postemergence, horseweed; details: visual injury, 0 to 100 scale (0 no effect, 100 complete control)
Text: as §1, §2

[22] = system: soybean (Glycine max); assay: Test C preemergence, soybean; details: 0 is no effect, 100 is complete control
Text: as §1, §2

[23] = system: corn (Zea mays); assay: Test C postemergence, corn; details: visual injury, 0 to 100 scale (0 no effect, 100 complete control)
Text: as §1, §2

[24] = system: kochia (Bassia scoparia); assay: Test C preemergence, kochia; details: 0 is no effect, 100 is complete control
Text: as §1, §2

[25] = system: wheat (Triticum aestivum); assay: Test C preemergence, wheat; details: 0 is no effect, 100 is complete control
Text: as §1, §2

[26] = system: wheat (Triticum aestivum); assay: Test C postemergence, wheat; details: visual injury, 0 to 100 scale (0 no effect, 100 complete control)
Text: as §1, §2

[27] = system: goosegrass (Eleusine indica); assay: Test C preemergence, goosegrass; details: 0 is no effect, 100 is complete control
Text: as §1, §2

Cc1cc(C)c(N2CCC(OCC3CCC3(F)F)C2=O)cc1NS(=O)(=O)C(F)(F)F (centres unmarked) [Compound 52]
Plant response rating (0 to 100 scale), Corn ([1]; 31 g ai/ha Preemergence): 10 | Plant response rating (0 to 100 scale), Corn ([1]; 125 g ai/ha Preemergence): 90 | Ryegrass, Italian plant response rating ([2]; 31 g ai/ha Postemergence): 40 | Ryegrass, Italian plant response rating ([2]; 125 g ai/ha Postemergence): 100 | Goosegrass plant response rating ([3]; 31 g ai/ha Postemergence): 0 | Goosegrass plant response rating ([3]; 125 g ai/ha Postemergence): 70 | Oat, Wild plant response rating ([4]; 31 g ai/ha Postemergence): 10 | Oat, Wild plant response rating ([4]; 125 g ai/ha Postemergence): 60 | Soybean plant response rating ([5]; 31 g ai/ha Postemergence): 60 | Soybean plant response rating ([5]; 125 g ai/ha Postemergence): 70 | Plant response rating, Rice [6]: 0 | Foxtail, Giant plant response rating ([7]; 31 g ai/ha Postemergence): 0 | Foxtail, Giant plant response rating ([7]; 125 g ai/ha Postemergence): 50 | Pigweed, Palmer plant response rating ([8]; 31 g ai/ha Postemergence): 0 | Pigweed, Palmer plant response rating ([8]; 125 g ai/ha Postemergence): 40 | Plant response rating, Sedge, Umbrella [9]: 80 | Galium plant response rating ([10]; 31 g ai/ha Postemergence): 70 | Galium plant response rating ([10]; 125 g ai/ha Postemergence): 100 | Ragweed plant response rating ([11]; 31 g ai/ha Postemergence): 40 | Ragweed plant response rating ([11]; 125 g ai/ha Postemergence): 70 | Plant response rating (0 to 100 scale), Pigweed, Palmer ([12]; 31 g ai/ha Preemergence): 70 | Plant response rating (0 to 100 scale), Pigweed, Palmer ([12]; 125 g ai/ha Preemergence): 100 | Plant response rating (0 to 100 scale), Ryegrass, Italian ([13]; 31 g ai/ha Preemergence): 0 | Plant response rating (0 to 100 scale), Ryegrass, Italian ([13]; 125 g ai/ha Preemergence): 80 | Plant response rating, Barnyardgrass [14]: 20 | Plant response rating, Ducksalad [15]: 90 | Kochia plant response rating ([16]; 31 g ai/ha Postemergence): 20 | Kochia plant response rating ([16]; 125 g ai/ha Postemergence): 70 | Plant response rating (0 to 100 scale), Oat, Wild ([17]; 31 g ai/ha Preemergence): 20 | Plant response rating (0 to 100 scale), Oat, Wild ([17]; 125 g ai/ha Preemergence): 90 | Plant response rating (0 to 100 scale), Ragweed ([18]; 31 g ai/ha Preemergence): 0 | Plant response rating (0 to 100 scale), Ragweed ([18]; 125 g ai/ha Preemergence): 30 | Plant response rating (0 to 100 scale), Foxtail, Giant ([19]; 31 g ai/ha Preemergence): 90 | Plant response rating (0 to 100 scale), Foxtail, Giant ([19]; 125 g ai/ha Preemergence): 100 | Blackgrass plant response rating ([20]; 31 g ai/ha Postemergence): 20 | Blackgrass plant response rating ([20]; 125 g ai/ha Postemergence): 40 | Horseweed plant response rating ([21]; 31 g ai/ha Postemergence): 80 | Horseweed plant response rating ([21]; 125 g ai/ha Postemergence): 90 | Plant response rating (0 to 100 scale), Soybean ([22]; 31 g ai/ha Preemergence): 30 | Plant response rating (0 to 100 scale), Soybean ([22]; 125 g ai/ha Preemergence): 50 | Corn plant response rating ([23]; 31 g ai/ha Postemergence): 0 | Corn plant response rating ([23]; 125 g ai/ha Postemergence): 60 | Plant response rating (0 to 100 scale), Kochia ([24]; 31 g ai/ha Preemergence): 70 | Plant response rating (0 to 100 scale), Kochia ([24]; 125 g ai/ha Preemergence): 100 | Plant response rating (0 to 100 scale), Wheat ([25]; 31 g ai/ha Preemergence): 90 | Plant response rating (0 to 100 scale), Wheat ([25]; 125 g ai/ha Preemergence): 100 | Wheat plant response rating ([26]; 31 g ai/ha Postemergence): 20 | Wheat plant response rating ([26]; 125 g ai/ha Postemergence): 70 | Plant response rating (0 to 100 scale), Goosegrass ([27]; 31 g ai/ha Preemergence): 80 | Plant response rating (0 to 100 scale), Goosegrass ([27]; 125 g ai/ha Preemergence): 100
